The values that follow come from US7498161B2 (priority 2003, dated 2009).

Data set [1] is described as follows: Scheduling experiment: tolerability of the injections (weight, behaviour). It counts as in vivo, athymic nude mice. To be noted: 80 mg/kg intra-peritoneal in 10% acetone/peanut oil. On the procedure: FIG. 26. Weight (as a measurement of health) in athymic nude mice with A2780 xenograft treated with either HSV 1790, HSV 1716, CB 1954 or a combination of them.
(§1) The treatment groups were administered with a single direct intratumoural injection of the virus and dose determined for that group. The virus was diluted PBS+10% serum. ‘No virus’ control groups received an intratumoural injection of 100 μl of PBS+10% serum. This day was designated as Experimental Day 0.
Some tumours bleed slightly after injection but not to a great degree. […] In all the tumours that bleed slightly, the following day the healing process had begun and within 3-5 days there was little evidence of any puncture wound on any tumour.
(§2) Injections of CB1954 were given to the appropriate groups at days 2, 10 and 15. A dose of 80 mg/kg—the equivalent of approx. 2 mg per mouse—was given. The powdered form of the CB1954 drug (from Sigma) was dissolved in acetone to 10% of the final volume (10 μl per 2 mg). The volume was then made up to 2 mg CB1954 in 100 μl using peanut oil. A syringe was used to mix the drug as peanut oil is thick and viscous. The drug was made up fresh every time.
The appropriate groups were then injected intra-peritoneal with this solution. Control groups which were not receiving drug were injected intra-peritoneal with a 100 μl solution of 10% acetone in peanut oil.

Data set [2] deals with A2780 xenograft. Kind of data set: Scheduling experiment: virus with or without CB1954, tumour volume in A2780 xenografts. The data set is classed as in vivo, athymic nude mice. The settings on record: CB1954 alone, no virus, 80 mg/kg intra-peritoneal. On the procedure: The inventors proceeded to investigate two doses of the virus in combination with CB1954. The doses selected were 10^5 PFU and 10^6 PFU. Both these doses caused some tumour growth delay in earlier experiments.
The prodrug is given as an 80 mg/kg intra-peritoneal injection, after dissolving the powdered form in 10% acetone and then making up the volume with peanut oil.
Mice were randomized into treatment groups (treatment regimes shown in Table 2) of 3 animals when tumour diameters were approximately 5 mm (tumour volume […]).
as §1, §2
The appropriate groups were then injected intra-peritoneal with this solution. […]

The test system of data set [3] is C8161 cells. It counts as cell-based, human. To be noted: 50 μM CB1954 alone.

`NC(=O)c1cc(N2CC2)c([N+](=O)[O-])cc1[N+](=O)[O-]` [CB1954, 5-aziridin-1-yl-2,4-dinitrobenzamide]: in data set [1], the behaviour after injection entry was “slightly lethargic for a short period after the injection”, the body weight entry is on record as “did not lose any body weight” and the “swelling or irritation at site of injection” value is recorded as “No swelling or irritation at the site of injection”. Further, in data set [2], the “effect on tumour growth” value is given as “little effect on tumour growth”. Also, in data set [3], the effect on cells entry is “no effect”.
